The test system of one assay is HCT116-luc cells. Nature of the assay: Cecum-to-liver metastasis model, GREM1-CM-pre-treated HCT116-luc in NOG mice. The conditions noted are these: cecum wall, SB505124 10 mg/kg i.p. every other day, IVIS, n = 5 mice per group. Format: in vivo, human cells in NOG mice. An excerpt: To determine the role of the ACVR1C–SMAD2/3 axis in GREM1-mediated EMT in vivo, we harnessed HCT116 cells carrying a luciferase reporter (HCT116-luc), which stably express either shACVR1C or a scramble shRNA. These cells were pretreated with GREM1-CM prior to their subcutaneous transplantation into nude mice. […] These findings were further corroborated by IF staining of EMT markers, including E-CAD and SNAIL (Figs. 5E–G). As a complementary pharmacological approach, we inhibited ACVR1C-mediated SMAD2/3 activation using SB505124. […] Importantly, to investigate the impact of the ACVR1C–SMAD2/3 axis on metastasis, we injected GREM1-CM-pre-treated HCT116-luc cells, stably expressing either shACVR1C or scramble shRNA, into the tail vein of nude mice. […]
Figure S8. […] E-G, Representative IF images (E) and quantification (F, G) of E-CAD (green), SNAIL (red), and DAPI (blue) staining in tumors from the indicated groups. […] H, I, Representative IVIS images (H) and quantification (I) of NOG mice that were injected with HCT116-luc cells in the cecum wall and treated with either SB505124 or vehicle via abdominal injection. Liver metastases were imaged and quantified using the IVIS Lumina Imaging System (n = 5 mice per group). […] P values were calculated using one-way ANOVA with Bonferroni multiple-comparison test (B–D, F, and G) or two-tailed Student’s t-test (I).

In another assay the test system is SW480 cells. In words: Scratch assay, SW480. The conditions noted are these: SW480, scratch assay 48 h; n = 3 independent experiments. It counts as cell-based, human. The protocol: (§1) To investigate the effect of secreted GREM1 on CRC cells, an in vitro GREM1 secretion system was established using HEK293 cells. Stably GREM1-expressing cells (pcDNA3.1-GREM1) and empty-vector transfected cells (pcDNA3.1) were cultured in DMEM/F12 medium with 10% FBS until 40% confluence. After complete removal of the normal culture medium, HEK293-GREM1 and HEK293-Vec cells were continuously cultured in DMEM/F12 medium without FBS for 5 days before medium collection. GREM1 or Vector conditioned medium (GREM1-CM/Vec-CM) was then centrifuged at 1000 rpm for 30 min and the supernatant was collected for further study.
(§2) Cells were seeded into 6-well plates after centrifugation and digestion with 0.05% trypsin. When the cell density reached 90%, three vertical lines were scratched in each well with a 10 µL pipette tip and the floating cells were gently washed away with 1×PBS. Complete medium was added, and images of the scratch area were taken at 0 h. Three different fields of view were selected for each well. After photography, the medium was replaced with serum-free medium. Wound healing was documented at the same location after 24–48 h of incubation.

The test system of a further assay is HCT116 cells. Nature of the assay: Scratch assay, HCT116. It counts as cell-based, human. The conditions noted are these: HCT116, scratch assay 24 h; n = 3 independent experiments. The protocol:
as §1, §2

“Also recorded” adds a separate entry of the source.

Turning to `Cc1cccc(-c2[nH]c(C(C)(C)C)nc2-c2ccc3c(c2)OCO3)n1` [SB505124], the liver metastasis entry in the assay with HCT116-luc cells was “significant reduction in liver metastasis; also recorded: markedly attenuated the metastatic phenotype induced by GREM1-CM”. Also, the “GREM1-CM-induced migration, effect of inhibitor” value with SW480 cells and in the assay with HCT116 cells was “abolished; also recorded: suppressed” in each case.

The values above are taken from paper PMC13371181, “A paracrine-to-autocrine shunt of GREM1 fuels colorectal cancer metastasis via ACVR1C” (Molecular Cancer, 2026).
